Patent US12441690B2, “Benzamide derivative compound, method for preparing same, and pharmaceutical composition for treating or preventing inflammatory disease containing same as active ingredient” (SEOUL NATIONAL UNIVERSITY R&DB FOUNDATION, priority 2017, dated 2025)

Experiments:
[1] = system: Nc/Nga mice treated with DNCB; test: Relief of atopic symptoms in Nc/Nga mice treated with DNCB; assay type: in vivo, mouse; conditions: for weight of the spleen: DNCB-treated mice; for lymph node size / number of scratches for 20 minutes / symptoms of hypertrophy and edema of incised dorsal skin / weight of the lymph node: compared to mouse treated with DNCB alone; for skin thickness: incised dorsal skin, DNCB alone 1.19 mm, control 0.45 mm; for side effects: mouse treated with the compound alone, applied on dorsal skin; for incidence of inflammation on the dorsal skin: treated together with DNCB, compared to DNCB only, last day of experiment; for dermatitis score at week 5: treated with DNCB, total of 12 points
Protocol: In order to confirm the atopic dermatitis alleviation effect of the compounds of Examples 1 and 25 according to the present invention, atopic symptom relief experiments were performed on the mice with atopic symptoms.
DNCB (dinitrochlorobenzene) was applied on the back of Nc/Nga mouse to induce atopic dermatitis-like symptoms.
As a carrier for treating DNCB, acetone-olive oil in which acetone and olive oil were mixed (3:1) was used. Six groups of mice were prepared as follows: mice treated with the carrier alone; mice treated with Example 1 compound, mice treated with Example 25 compound, mice treated with DNCB alone, mice treated with DNCB and Example 1 compound, and mice treated with DNCB and Example 25 compound.
Particularly, 2 days before the start of the experiment, hair of the dorsal skin of the mouse was removed. After 2 days after removing the hair, 150 μl of 1% DNCB was dissolved in a carrier and applied on the dorsal skin of the mouse. Four days later, the same solution was applied on the dorsal skin of the mouse once again. Then, 150 μl of 0.2% DNCB solution was applied on the dorsal skin of the mouse once a week for 5 weeks. The experimental group mice were applied with the compounds of Example 1 and Example 25 daily from the 6th day of the experiment to the end of the experiment.
The degree of atopic symptoms in the experimental group and control group mice was evaluated and quantified once a week for a period of 5 weeks. Scores were given as follows for the four items of erythema/bleeding, edema, threshing/corrosion, scaling/dryness, respectively: 1 (none); 2 (moderate); and 3 (serious). Each experimental group and control group was scored based on a total of 12 points.
In order to confirm the effect of the compounds according to the present invention on relieving itching, the number of scratches for 20 minutes of each mouse of the experimental group and control group was measured, and the results are shown graphically in FIG. 5(a), (b).
After completing the experiment, the physical changes were observed by incising the dorsal skin of the experimental group and control group mice. As a result, hypertrophy and edema were clearly observed in the mouse treated with DNCB alone.
In addition, to confirm the alleviating effect of the compounds according to the present invention on skin hypertrophy, the incised skin thickness was measured, and the results are shown graphically in FIG. 5(b).
In order to confirm the effect of the compounds according to the present invention, the lymph node of each mouse of the experimental group and control group was separated and observed. The lymph node is an interaction site between the antigen and immune cells, and since the size of the lymph node increases during the development of inflammatory symptoms, it is possible to confirm the presence or absence of inflammatory disease depending on the size of the lymph node. The photographs of the separated lymph node of each mouse of the experimental group and control group are shown in FIG. 6(a), and the weight of the lymph node and the spleen of each mouse of the experimental group and control group are shown in FIG. 6(b) and FIG. 6(c).

[2] = system: IL-4, IL-5, IFN-γ, IL-17 and IgE in mouse skin tissues; test: Sandwich ELISA with mouse skin tissues; assay type: in vivo; conditions: for expression of IL-4 (ELISA) / expression of IL-5 (ELISA) / expression of IL-17 (ELISA): DNCB; for expression of IgE (ELISA): treated with DNCB
Protocol: To confirm the effect of the compounds according to the present invention on the synthesis of DNCB-induced IgE and inflammatory mediators, ELISA (Enzyme-Linked ImmunoSorbent Assay) was performed with the control group and the experimental group treated with the compounds of Example 1 and Example 25.
FIG. 11(a)-FIG. 11(e) are graphs showing the expression levels of IL-4, IL-5, IFN-γ, IL-17 and IgE, respectively, shown when performing sandwich ELISA (Enzyme-Linked ImmunoSorbent Assay) with the mouse skin tissues.

[3] = target: PDE4B GFP fusion protein (human PDE4B2A) (Homo sapiens (Human), UniProt Q07343); test: PDE4B GFP fusion protein-inhibitor assay in HEK-293 cells; assay type: cell-based
PDE4B GFP fusion protein (human PDE4B2A), sequence (Q07343 other isoform, or with tags, fused parts or gaps): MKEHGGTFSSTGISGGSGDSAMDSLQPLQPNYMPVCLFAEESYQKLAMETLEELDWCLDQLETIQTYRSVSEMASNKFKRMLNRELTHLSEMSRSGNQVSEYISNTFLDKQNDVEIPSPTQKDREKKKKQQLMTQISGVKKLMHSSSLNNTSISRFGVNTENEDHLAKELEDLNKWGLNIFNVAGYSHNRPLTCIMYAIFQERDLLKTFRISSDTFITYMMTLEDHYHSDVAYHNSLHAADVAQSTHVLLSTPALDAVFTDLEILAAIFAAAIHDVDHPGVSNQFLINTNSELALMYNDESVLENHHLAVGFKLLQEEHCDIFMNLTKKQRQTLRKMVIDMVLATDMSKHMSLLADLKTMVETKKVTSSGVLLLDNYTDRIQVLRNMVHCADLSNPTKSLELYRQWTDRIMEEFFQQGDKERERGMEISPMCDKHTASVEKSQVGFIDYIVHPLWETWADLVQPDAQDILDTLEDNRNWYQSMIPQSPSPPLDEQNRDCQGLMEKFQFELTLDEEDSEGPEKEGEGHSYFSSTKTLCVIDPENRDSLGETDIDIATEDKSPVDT
Protocol: To evaluate the intracellular enzyme inhibitory activity of the compounds of Examples 1 and 25, PDE4B GFP fusion protein-inhibitor assay was performed using GFP (green fluorescent protein).
The DNA complementary to human PDE4B2A was amplified by PCR using the DNA genome extracted from the human blood sample (QIAamp DNA Blood Mini Kit, Qiagen, Valencia, CA, U.S.A.).
For DNA amplification, 5′-[…]-3′ was used as a forward primer, and 5′-[…]-3′ was used as a reverse primer.
The amplified PDE4B2A cDNA was cloned into pAcGFP1-N1, the mammalian expression mediator, between the EcoR1 and BamH1 restriction enzyme sites, which was transfected into E. coli DH5α cells using chemical transformation reagents (Invitrogen, Carlsbad, CA, U.S.A.).
Plasmids were isolated from the colonies with kanamycin using Plasmid Midi Kit (Qiagen, Valencia, CA, U.S.A.). Then, the plasmid cloned with PDE4B2A gene was transfected into HEK-293 cells (Korean Cell Line Bank, Seoul, Korea) using lipofectamine 3000 (Invitrogen).
The transfected cells were cultured in DMEM at 37° C. for 48 hours in a CO2 incubator. […] Upon completion of the culture, the fluorescence emission of HEK-293 cells was measured by confocal microscopy to perform quantitative analysis, and the results are shown in FIGS. 1 and 2.
In addition, the ratio of the surface cover area of GFP to the total cell surface area was measured using MetaMorph software, and the results are shown in FIG. 2.

PDE4B enzyme = PDE4B enzyme (Homo sapiens (Human), UniProt Q07343); test: PDE4B inhibitory activity, LANCE Ultra cAMP assay; assay type: biochemical; conditions: 50% inhibition from cAMP to 5′AMP
PDE4B enzyme, sequence (Q07343 whole entry): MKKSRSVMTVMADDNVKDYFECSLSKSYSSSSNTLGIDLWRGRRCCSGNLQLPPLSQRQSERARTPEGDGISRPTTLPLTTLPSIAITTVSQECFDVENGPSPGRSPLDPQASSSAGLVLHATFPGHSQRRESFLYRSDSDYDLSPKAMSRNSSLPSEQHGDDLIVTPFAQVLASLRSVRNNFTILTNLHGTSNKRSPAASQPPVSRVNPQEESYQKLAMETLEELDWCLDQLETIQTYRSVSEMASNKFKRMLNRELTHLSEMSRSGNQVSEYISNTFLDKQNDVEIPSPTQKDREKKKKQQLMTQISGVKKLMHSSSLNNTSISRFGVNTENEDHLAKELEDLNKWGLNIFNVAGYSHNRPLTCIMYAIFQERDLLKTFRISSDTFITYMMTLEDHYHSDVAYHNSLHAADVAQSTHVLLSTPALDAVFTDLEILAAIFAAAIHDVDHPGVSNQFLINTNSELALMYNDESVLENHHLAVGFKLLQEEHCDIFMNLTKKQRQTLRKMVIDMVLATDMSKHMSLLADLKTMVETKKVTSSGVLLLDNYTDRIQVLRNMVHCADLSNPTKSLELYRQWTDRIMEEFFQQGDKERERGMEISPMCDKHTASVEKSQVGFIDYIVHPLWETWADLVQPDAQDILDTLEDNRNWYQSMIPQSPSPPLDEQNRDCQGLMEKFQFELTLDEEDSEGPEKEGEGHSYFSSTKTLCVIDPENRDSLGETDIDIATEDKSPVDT
Protocol: In order to evaluate the PDE4B inhibitory activity of the compounds according to the present invention, the following experiment was performed using LANCE Ultra cAMP assay kit (Perkin Elmer, U.S.A).
Particularly, 5 μl of the 3 nM cAMP dissolved reaction buffer was added to each reaction well (LANCE Ultra cAMP assay kit). Then, each example compound dilution solution (2.5 μl) and PDE4B enzyme (0.1 ng/well, BPS Biosciences, San Diego, U.S.A) were added to the well, followed by incubation for 1 hour at 37° C. Next, 5 μl of ULight-anti-cAMP detection reactant supplemented with 5 μl of Eu-cAMP tracer and 1 mM IBMX (LANCE Ultra cAMP assay kit) was added thereto, followed by incubation for 1 hour at 37° C.

[4] = system: TNF-α secretion in human PBMC cells; test: Inhibition of TNF-α synthesis in LPS-stimulated human PBMC cells; assay type: cell-based; conditions: human PBMC cells stimulated using bacterial LPS
Protocol: In addition, to evaluate the inhibitory effect of the compounds of Example 1 and Example 25 on the synthesis of TNF-α, in vitro assay was performed. Particularly, after culturing human PBMC cells, the secretion of TNF-α was stimulated using bacterial LPS, and the expression level of TNF-α was measured.

[5] = system: dorsal skin tissue of Nc/Nga mice treated with DNCB; test: Observation of mouse dorsal skin tissue (H&E, toluidine blue, CD4+ cell staining); assay type: in vivo; conditions: for expression of IFN-γ in CD4+ cells / expression of IL-4 of CD4+ cells / expression of IL-5 of CD4+ cells / expression of IL-17 of CD4+ cells: applied on the skin; for expression of IL-4 of CD4+ cells / expression of IL-5 of CD4+ cells / expression of IL-17 of CD4+ cells: compared to DNCB alone; for number of mast cells in skin tissue (toluidine blue): compared to mouse treated with DNCB alone; for skin structure of tissue sections (H&E): groups treated with the compound without DNCB; for epidermal hyperplasia and keratosis (H&E) / inflammatory cells in skin sections (H&E): treated with DNCB
Protocol: The dorsal skin samples were obtained from the experimental group and control group mice. The samples were fixed using 10% neutral buffered formalin and then embedded in paraffin. 4 μm thin tissue sections were prepared and stained with H & E (hematoxylin & eosin). […] In addition, the sections were stained with toluidine blue to investigate mast cell infiltration. Then, the stained tissue sections were photographed using NikonAX70 optical microscope (Tokyo, Japan).
In addition, the mouse tissue CD4+ cells were stained to confirm the expressions of IL-17, IFN-γ, IL-4 and IL-5.

[6] = 24 hours, compared to control group not-treated with any inhibitor
[7] = at the concentrations of 100 nM and 500 nM

| fluorescence intensity of PDE4B GFP fusion protein [3, 6] | fluorescence intensity of PDE4B GFP fusion protein [3, 7] | IC50 (PDE4B enzyme) | SMILES | weight of the spleen [1] | lymph node size [1] | number of scratches for 20 minutes [1] | symptoms of hypertrophy and edema of incised dorsal skin [1] | weight of the lymph node [1] | skin thickness [1] | side effects [1] | incidence of inflammation on the dorsal skin [1] | dermatitis score at week 5 [1] | expression of IFN-γ (ELISA) [2] | expression of IL-4 (ELISA) [2] | expression of IL-5 (ELISA) [2] | expression of IL-17 (ELISA) [2] | expression of IgE (ELISA) [2] | synthesis of TNF-α [4] | expression of IFN-γ in CD4+ cells [5] | expression of IL-4 of CD4+ cells [5] | further results |
| --- | --- | --- | --- | --- | --- | --- | --- | --- | --- | --- | --- | --- | --- | --- | --- | --- | --- | --- | --- | --- | --- |
| relatively weak | significantly reduced | 0.031 µM | COc1ccc(NC(=O)c2cnc(SC)nc2N2CCOCC2)cc1OC [Example 1, N-(3,4-dimethoxyphenyl)-2-(methylthio)-4-morpholinopyrimidine-5-carboxamide] | significantly reduced | significantly reduced | significantly less | no symptoms of hypertrophy and edema | significantly reduced | 0.83 mm | no side effects were observed | significantly reduced | less than 3 | high | significantly suppressed | significantly suppressed | significantly suppressed | significantly reduced | effectively inhibited | activated | more suppressed | expression of IL-5 of CD4+ cells [5]: more suppressed; expression of IL-17 of CD4+ cells [5]: more suppressed; number of mast cells in skin tissue (toluidine blue) [5]: significantly reduced; skin structure of tissue sections (H&E) [5]: normal skin structure; epidermal hyperplasia and keratosis (H&E) [5]: significantly reduced; inflammatory cells in skin sections (H&E) [5]: almost no inflammatory cells |
| relatively weak | significantly reduced | 0.015 µM | COc1ccc(-c2nc(C(F)(F)F)ncc2C(=O)Nc2ccncc2)cc1OC [Example 25, 4-(3,4-dimethoxyphenyl)-N-(pyridine-4-yl)-2-(trifluoromethyl)pyrimidine-5-carboxamide] | significantly reduced | significantly reduced | significantly less | no symptoms of hypertrophy and edema | significantly reduced | 0.71 mm | no side effects were observed | significantly reduced | less than 3 | high | significantly suppressed | significantly suppressed | significantly suppressed | significantly reduced | effectively inhibited | activated | more suppressed | expression of IL-5 of CD4+ cells [5]: more suppressed; expression of IL-17 of CD4+ cells [5]: more suppressed; number of mast cells in skin tissue (toluidine blue) [5]: significantly reduced; skin structure of tissue sections (H&E) [5]: normal skin structure; epidermal hyperplasia and keratosis (H&E) [5]: significantly reduced; inflammatory cells in skin sections (H&E) [5]: almost no inflammatory cells |
